Entries after “also recorded” stand apart in the source; their conditions may differ.
Tested on: mung bean hypocotyl cuttings
Test: Comparative mung bean bioassay: rooting response of stem cuttings versus seaweed products and IAA/IBA standards (Example 6)
Type: in vivo
Conditions: for pH: 30 mg/L; for stem growth, length: 1% dilution; for concentration with the higher number of roots developed: range 0 to 30 mg/L
Text: A composition comparative study further embodiment described in detail in Example 6. to determine the concertation of Auxins in relation to Standard indole-3-Butiric acid (IBA) and indole-3-acetic (IAA) embodied in the examples Duckweed Biotech product is a combination of three aquatic plants of the Aracea family, which is compared with commercial seaweed products: Product (1) “K” and Product (2) “M”. The dilutions were made from the liquid concentrated products and the Duckweed Biotech from a natural concentrate extraction of three duckweed species. The equivalent phytohormone activity of IAA and IBA was established by the number of roots to the corresponding treatment dilution and interpolating the number of roots to the corresponding hormone concentration to obtain the total activity in mg/L of the commercial product.
Two commercial giant brown kelp seaweed products, Product (1) “K” made of Ecklonia maxima and Product (2) “M” made of Ascophyllum nodosum were compared with the Duckweed Biotech Product “D” made of a combination of Duckweed aquatic plants of the Araceae family of plants formally known as Lemnaceae family of plants. For the test, a series of dilutions from 0% to 50% were made from the concentrated commercial products.
The preparation of standards was performed using a concentration range of 0, 1, 2, 5, 10, 15, 20 and 30 mg/L of indole-3-butyric acid (IBA) and indole-3-acetic acid (IAA) as shown in Table 20. A dose growth response curve for rooting ability was produced using these auxins.
The mung bean bioassay was used to evaluate plant growth and rooting stimulation response of three products: Duckweed Biotech Product “D”, Product (1) “K” and Product (2) “M”.
The seeds of mung bean seeds were rinse thoroughly with water and soak for […]. in DI water. 2. The seeds were planted in microgreen trays for germination process at 26° C. After 8 days, uniform hypocotyl cuttings with 8 cm length with 2 primary leaves and without cotyledon were transferred to the treatment vials. The cuttings are rinsed with DI water and then soak in 20 mL treatment test solutions for 8 hr. The treatment solutions include Duckweed Biotech Product “D”, Product (1) “K”, Product (2) “M”, indole-3-acetic acid (IAA), and indole-3-butyric acid (IBA). The treatments are follows: • IBA & IAA concentrations: 0, 1, 2, 5, 10, 15, 20 and 30 mg/L • Duckweed Biotech Product “D” Conc.: 0, 0.5, 1, 2, 5, 10, 20 and 50% • Product (1) “K” Conc.: 0, 0.5, 1, 2, 5, 10, 20 and 50% • Product (2) “M” Conc.: 0, 0.5, 1, 2, 5, 10, 20 and 50%
3 After the treatments, the seedling base cuttings were rinsed with DI water and transferred to clean vials with glass beads containing 60 mL of DI water for 8 days. Two cuttings were placed in each vial and two vials were used for each treatment. The vials are left at 28±3° C. ambient air temperature and under lighting at 135 μmol photons m^−2 s^−1 in a 16-h day/8-h night cycle. The humidity is maintained over 60%.
4. After 8 days, the number of roots per hypocotyl was recorded. The plant quality and stem length were also evaluated. The data collected was organized and analyzed using Microsoft Excel
The plant growth and rooting response of each treatment were recorded after 8 days. The rooting response was evaluated based on number of roots developed per cutting. The average number of roots of three cuttings per treatment was used to determine the effectiveness of the treatments. Plant quality and stem length were also recorded. […] The plants with higher rooting response were found at 2% with duckweed treatment with 67 roots. Whereas Product (1) “K” at 20% dilution stimulated root production with 46 roots and Product (2) “M” at 2% dilution with 32 roots. A decline of rooting stimulation was found at 50% dilution for all evaluated products (FIG. 35 & FIG. 36) that coincides with previous research literature for brown kelp extract products. […]

Compound	pH	stem growth, length	concentration with the higher number of roots developed	root formation, IBA compared with IAA (in vivo)
O=C(O)Cc1c[nH]c2ccccc12 [IAA, indole-3-acetic acid]	6.92	15 cm	30 mg/L	
O=C(O)CCCc1c[nH]c2ccccc12 [IBA, indole-3-butyric acid]	6.53	15 cm	30 mg/L	stimulated more roots in all concentrated treatments than IAA; also recorded: more effective than indol-3-acetic acid (IAA) in root development
